Patent US12545639B2, “3-substituted phenylamidine compounds, preparation and use thereof” (PI INDUSTRIES LTD., priority 2019, dated 2026)

Columns and labels:
[1] = system: Phakopsora pachyrhizi; assay: Phakopsora pachyrhizi test in soybean, preventive, in vivo on plants; conditions: in Glycine max, read-out: Efficacy (% control), disease severity compared to the untreated check
[2] = system: Alternaria solani; assay: Alternaria solani (early blight of tomato/potato) in vitro test, radial growth on potato dextrose agar; format: cell-based; conditions: 168 h, 300 ppm in potato dextrose agar, 25° C., 60% relative humidity, seven days, read-out: control compared to the untreated check (radial growth)
[3] = system: Botrytis cinerea; assay: Botrytis cinerea (gray mold) in vitro test, radial growth on potato dextrose agar; format: cell-based; conditions: 168 h, 300 ppm in potato dextrose agar, 22° C., 90% relative humidity, seven days, read-out: control compared to the untreated check (radial growth)
[4] = system: Colletotrichum capsici; assay: Colletotrichum capsici (anthracnose) in vitro test, radial growth on potato dextrose agar; format: cell-based; conditions: Colletotrichum truncatum, 168 h; 300 ppm in potato dextrose agar; 25° C., 60% relative humidity, seven days; read-out: control compared to the untreated check (radial growth)
[5] = system: Pyricularia oryzae; assay: microbe, parasite or virus in culture; format: cell-based; conditions: 168 h, read-out: control compared to the untreated check (radial growth)
[6] = system: Septoria lycopersici/Corynespora cassicola (CORYCA); assay: Septoria lycopersici/Corynespora cassicola (CORYCA) (leaf spot of tomato) in vitro test, radial growth on potato dextrose agar; format: cell-based; conditions: 168 h, 300 ppm in potato dextrose agar, 25° C., 70% relative humidity, seven days, read-out: control compared to the untreated check (radial growth)
[7] = system: Rhizoctonia solani; assay: Rhizoctonia solani (rice sheath blight/potato black scurf) in vitro test, radial growth on potato dextrose agar; format: cell-based; conditions: 168 h, 300 ppm in potato dextrose agar, 25° C., 60% relative humidity, seven days, read-out: control compared to the untreated check (radial growth)

CCN(C)C=Nc1cc(Cl)cc(Cc2ccccc2Cl)c1C [Compound 89, N′-(5-chloro-3-(2-chlorobenzyl)-2-methylphenyl)-N-ethyl-N-methylformimidamide]
≥ 70%: pest or weed control at 500 ppm [1] | inhibition of growth at 300 ppm [2] | inhibition of growth at 300 ppm [3] | inhibition of growth at 300 ppm [4] | inhibition of growth at 300 ppm [5] | inhibition of growth at 300 ppm [6] | inhibition of growth at 300 ppm [7]

CCN(C)C=Nc1cc(C)cc(Nc2ccc(F)cc2)c1Cl [Compound 60, N′-(2-chloro-3-((4-fluorophenyl)amino)-5-methylphenyl)-N-ethyl-N-methylformimidamide]
≥ 70%: pest or weed control at 500 ppm [1] | inhibition of growth at 300 ppm [2] | inhibition of growth at 300 ppm [3] | inhibition of growth at 300 ppm [4] | inhibition of growth at 300 ppm [5] | inhibition of growth at 300 ppm [6] | inhibition of growth at 300 ppm [7]

CCN(C)C=Nc1cc(F)cc(Nc2cccc(C)c2)c1C [Compound 31, N-ethyl-N′-(5-fluoro-2-methyl-3-(m-tolylamino)phenyl)-N-methylformimidamide]
≥ 70%: pest or weed control at 500 ppm [1] | inhibition of growth at 300 ppm [2] | inhibition of growth at 300 ppm [3] | inhibition of growth at 300 ppm [4] | inhibition of growth at 300 ppm [5] | inhibition of growth at 300 ppm [6] | inhibition of growth at 300 ppm [7]

CCN(C)C=Nc1cc(Cl)cc(Cc2ccccc2)c1C [Compound 79, N′-(3-benzyl-5-chloro-2-methylphenyl)-N-ethyl-N-methylformimidamide]
≥ 70%: pest or weed control at 500 ppm [1] | inhibition of growth at 300 ppm [2] | inhibition of growth at 300 ppm [3] | inhibition of growth at 300 ppm [4] | inhibition of growth at 300 ppm [5] | inhibition of growth at 300 ppm [6] | inhibition of growth at 300 ppm [7]

CCN(C)C=Nc1cc(F)cc(Cc2cccc(C(F)(F)F)c2)c1C [Compound 201, N-ethyl-N′-(5-fluoro-2-methyl-3-(3-(trifluoromethyl)benzyl)phenyl)-N-methylformimidamide]
≥ 70%: pest or weed control at 500 ppm [1] | inhibition of growth at 300 ppm [2] | inhibition of growth at 300 ppm [3] | inhibition of growth at 300 ppm [4] | inhibition of growth at 300 ppm [5] | inhibition of growth at 300 ppm [6] | inhibition of growth at 300 ppm [7]

CCN(C)C=Nc1cc(Cl)cc(Cc2ccc(F)c(C)c2)c1C [Compound 128, N′-(5-chloro-3-(4-fluoro-3-methylbenzyl)-2-methylphenyl)-N-ethyl-N-methylformimidamide]
≥ 70%: pest or weed control at 500 ppm [1] | inhibition of growth at 300 ppm [2] | inhibition of growth at 300 ppm [3] | inhibition of growth at 300 ppm [4] | inhibition of growth at 300 ppm [5] | inhibition of growth at 300 ppm [6] | inhibition of growth at 300 ppm [7]

CCN(C)C=Nc1cc(C)cc(Cc2ccc(F)c(F)c2)c1Cl [Compound 67, N′-(2-chloro-3-(3,4-difluorobenzyl)-5-methylphenyl)-N-ethyl-N-methylformimidamide]
≥ 70%: pest or weed control at 500 ppm [1] | inhibition of growth at 300 ppm [2] | inhibition of growth at 300 ppm [3] | inhibition of growth at 300 ppm [4] | inhibition of growth at 300 ppm [5] | inhibition of growth at 300 ppm [6] | inhibition of growth at 300 ppm [7]

CCN(C)C=Nc1cc(C)cc(Cc2ccc(Br)cc2F)c1Cl [Compound 217, N′-(3-(4-bromo-2-fluorobenzyl)-2-chloro-5-methylphenyl)-N-ethyl-N-methylformimidamide]
≥ 70%: pest or weed control at 500 ppm [1] | inhibition of growth at 300 ppm [2] | inhibition of growth at 300 ppm [3] | inhibition of growth at 300 ppm [4] | inhibition of growth at 300 ppm [5] | inhibition of growth at 300 ppm [6] | inhibition of growth at 300 ppm [7]

CCN(C)C=Nc1cc(F)cc(Nc2cc(Cl)cc(C(F)(F)F)c2)c1C [Compound 161, N′-(3-((3-chloro-5-(trifluoromethyl)phenyl)amino)-5-fluoro-2-methylphenyl)-N-ethyl-N-methylformimidamide]
≥ 70%: pest or weed control at 500 ppm [1] | inhibition of growth at 300 ppm [2] | inhibition of growth at 300 ppm [3] | inhibition of growth at 300 ppm [4] | inhibition of growth at 300 ppm [5] | inhibition of growth at 300 ppm [6] | inhibition of growth at 300 ppm [7]

CCN(C)C=Nc1cc(C)cc(Nc2cccc(C(C)C)c2)c1Cl [Compound 58, N′-(2-chloro-3-((3-isopropylphenyl)amino)-5-methylphenyl)-N-ethyl-N-methylformimidamide]
≥ 70%: pest or weed control at 500 ppm [1] | inhibition of growth at 300 ppm [2] | inhibition of growth at 300 ppm [3] | inhibition of growth at 300 ppm [4] | inhibition of growth at 300 ppm [5] | inhibition of growth at 300 ppm [6] | inhibition of growth at 300 ppm [7]

CCN(C)C=Nc1cc(C)cc(Cc2c(F)cccc2Cl)c1Cl [Compound 92, N′-(2-chloro-3-(2-chloro-6-fluorobenzyl)-5-methylphenyl)-N-ethyl-N-methylformimidamide]
≥ 70%: pest or weed control at 500 ppm [1] | inhibition of growth at 300 ppm [2] | inhibition of growth at 300 ppm [3] | inhibition of growth at 300 ppm [4] | inhibition of growth at 300 ppm [5] | inhibition of growth at 300 ppm [6] | inhibition of growth at 300 ppm [7]

CCN(C)C=Nc1cc(C)cc(Cc2ccccc2F)c1Cl [Compound 14, N′-(2-chloro-3-(2-fluorobenzyl)-5-methylphenyl)-N-ethyl-N-methylformimidamide]
≥ 70%: pest or weed control at 500 ppm [1] | inhibition of growth at 300 ppm [2] | inhibition of growth at 300 ppm [3] | inhibition of growth at 300 ppm [4] | inhibition of growth at 300 ppm [5] | inhibition of growth at 300 ppm [6] | inhibition of growth at 300 ppm [7]

CCN(C)C=Nc1cc(Cl)cc(Cc2ccccc2F)c1C [Compound 103, N′-(5-chloro-3-(2-fluorobenzyl)-2-methylphenyl)-N-ethyl-N-methylformimidamide]
≥ 70%: pest or weed control at 500 ppm [1] | inhibition of growth at 300 ppm [2] | inhibition of growth at 300 ppm [3] | inhibition of growth at 300 ppm [4] | inhibition of growth at 300 ppm [5] | inhibition of growth at 300 ppm [6] | inhibition of growth at 300 ppm [7]

CCN(C)C=Nc1cc(C)cc(Cc2c(F)cccc2F)c1Cl [Compound 91, N′-(2-chloro-3-(2,6-difluorobenzyl)-5-methylphenyl)-N-ethyl-N-methylformimidamide]
≥ 70%: pest or weed control at 500 ppm [1] | inhibition of growth at 300 ppm [2] | inhibition of growth at 300 ppm [3] | inhibition of growth at 300 ppm [4] | inhibition of growth at 300 ppm [5] | inhibition of growth at 300 ppm [6] | inhibition of growth at 300 ppm [7]

CCN(C)C=Nc1cc(C)cc(Nc2cc(Cl)ccc2C)c1Cl [Compound 100, N′-(2-chloro-3-((5-chloro-2-methylphenyl)amino)-5-methylphenyl)-N-ethyl-N-methylformimidamide]
≥ 70%: pest or weed control at 500 ppm [1] | inhibition of growth at 300 ppm [2] | inhibition of growth at 300 ppm [3] | inhibition of growth at 300 ppm [4] | inhibition of growth at 300 ppm [5] | inhibition of growth at 300 ppm [6] | inhibition of growth at 300 ppm [7]

CCN(C)C=Nc1cc(F)cc(Cc2cc(C)cc(F)c2)c1C [Compound 235, N-ethyl-N′-(5-fluoro-3-(3-fluoro-5-methylbenzyl)-2-methylphenyl)-N-methylformimidamide]
≥ 70%: pest or weed control at 500 ppm [1] | inhibition of growth at 300 ppm [2] | inhibition of growth at 300 ppm [3] | inhibition of growth at 300 ppm [4] | inhibition of growth at 300 ppm [5] | inhibition of growth at 300 ppm [6] | inhibition of growth at 300 ppm [7]

CCN(C)C=Nc1cc(F)cc(Cc2cccc(Cl)c2)c1C [Compound 144, N′-(3-(3-chlorobenzyl)-5-fluoro-2-methylphenyl)-N-ethyl-N-methylformimidamide]
≥ 70%: pest or weed control at 500 ppm [1] | inhibition of growth at 300 ppm [2] | inhibition of growth at 300 ppm [3] | inhibition of growth at 300 ppm [4] | inhibition of growth at 300 ppm [5] | inhibition of growth at 300 ppm [6] | inhibition of growth at 300 ppm [7]
